Laboratory results taken from paper PMC11492916 (OncoTargets and Therapy, 2024).
Where “and” joins values, the source holds several entries; their conditions need not be identical. Equal values may be shown once.

Experiments:
[1] = tested on: HeLa; assay: MTT cytotoxicity assay, HeLa cervical cancer cells; assay type: cell-based; conditions: Homo sapiens, 48 h, read-out: IC50, cytotoxic activity against HeLa
[2] = tested on: T47D; assay: MTT cytotoxicity assay, T47D breast cancer cells; assay type: cell-based; conditions: Homo sapiens, 48 h, read-out: IC50, cytotoxic activity against T47D

Compound: COc1cccc2c1C(=O)c1c(O)c3c(c(O)c1C2=O)C[C@@](O)(C(=O)CO)C[C@@H]3O[C@H]1C[C@H](N)[C@H](O)[C@H](C)O1 [DOX, doxorubicin]
- IC50 [1]: 3.38 µg/mL and 6.22 µM
- IC50 [2]: 0.17 µg/mL and 310 nM
